Measured values from US10370405B2, “C-3 novel triterpenone with C-28 amide derivatives as HIV inhibitors” (HETERO LABS LIMITED, priority 2016, dated 2019).
Read-outs that look alike come from different tables or passages of the source.

What was measured:
[1] = Single dose oral pharmacokinetic study; assay type: in vivo; settings: mouse, plasma; Mice oral PK @30 mg/kg
Description: The test item was administered through oral route to animals (rat/mice) at 30 mg/kg dose in a suitable vehicle (10% Solutol+20% PEG) at 10 ml/kg dose volume. Blood samples (˜50 μL at each time point) were collected from retro-orbital plexus using K3 EDTA as anticoagulant in eppendorf tubes at defined time intervals 30 minutes, 1 hour, 2 hour, 4 hour, 8 hour, 24 hour & 48 hour under light ether anaesthesia. The samples were centrifuged at 3500×g to separate plasma and stored at −80° C. until analysis. Plasma […] for Mice were processed as per described in sample preparation.
Standard solutions of the test compound 1 mg/mL solutions were prepared in DMSO and further dilutions were made in methanol. The calibration curve samples for LCMSMS analysis were prepared by spiking 25 μl of Mice plasma with 2.5 μl and of the appropriate working standard solution to obtain final concentrations 0.078, 0.156, 0.312, 0.625, 1.25, 2.5, 5, 10, 20 & 40 µg/ml. To the test compound plasma extraction was carried out using Acetonitrile precipitation. After reconstitution with solvent (50% Acetonitrile in Buffer) samples were analyzed by LCMSMS to get the concentrations to calculate PK Parameters.

HIV-1 strain 92HT599 = experiment: Antiviral activity: p24 estimation in MT2 cells infected with HIV-1; assay type: cell-based; settings: for IC50: Human immunodeficiency virus 1, MT2; for inhibition at 0.01 µM / inhibition at 0.1 µM / inhibition at 1 µM: Human immunodeficiency virus 1, MT2 cells, HIV-1 92HT599, p24, ~96 hours
Description: MT2 cells were infected with HIV-1 strain 92HT599 (10 TCID 50/30000 cells). The infected cells were plated at the concentration of ˜30 000 cells per well in 96 well plate. Test compound was added to the micro plate in defined format with the final concentration of DMSO (vehicle) is not more than 1%. Incubation was carried out in CO2 incubator for ˜96 hours for viral infection. At the end of incubation period an aliquot from each well was taken for p24 estimation. The quantitation of p24 is an index for antiviral activity of the compound. Percent inhibition was calculated with reference to control values (vehicle controls). P-24 estimation was carried out using Advance biosciences kit as per the procedure detailed by supplier.

[2] = 0% serum, read-out: Antiviral activity IC50 (nM) 0%
[3] = read-out: Antiviral activity IC50 (nM) 40% serum

Description for in vitro: On day 1 calculate the number of cells required for the assay and seed 3×10^4 cells in 200 μl per well. Weigh the compound and dissolve it in DMSO to get 10 mM stock which is further diluted to 3 mM and 1 mM. The drugs from these stocks were added to plate to get final concentration of 100 μM, 30 μM and 10 μM. […] Incubate for 4 days in 5% CO2 incubator at 37° C. On day 4, 100 μl of medium was removed from each well without disturbing the cells. Add 10 μl of MTT reagent and incubate for 4 hours at 5% CO2 incubator at 37° C. for formation of crystals. Add 200 μl of 0.1N acidic isopropanol to dissolve the crystals and read the plate at 590 nm.

Compound	AUC(0-t) [1] [µg·h/mL]	Cmax [1] [ng/mL]	viability at 4 days, 10 μM (in vitro) [%]	viability at 4 days, 30 μM (in vitro) [%]	viability at 4 days, 100 μM (in vitro) [%]	IC50 (HIV-1 strain 92HT599; [2]) [nM]	IC50 (HIV-1 strain 92HT599; [3]) [nM]	inhibition at 0.01 µM (HIV-1 strain 92HT599) [%]	inhibition at 0.1 µM (HIV-1 strain 92HT599) [%]	inhibition at 1 µM (HIV-1 strain 92HT599) [%]
CC(C)C1=C2[C@H]3CC[C@@H]4[C@@]5(C)CC[C@H](OC(=O)[C@H]6C[C@@H](C(=O)O)C6(C)C)C(C)(C)[C@@H]5CC[C@@]4(C)[C@]3(C)CC[C@@]2(C(=O)NC(C)(C)c2ncc(-c3ccccc3)[nH]2)CC1=O [Example 8, (1R,3S)-3-((((3aR,5aR,5bR,7aR,9S,11aR,11bR,13aS)-1-isopropyl-5a,5b,8,8,11a-pentamethyl-2-oxo-3a-((2-(5-phenyl-1H-imidazol-2-yl)propan-2-yl)carbamoyl)-3,3a,4,5,5a,5b,6,7,7a,8,9,10,11,11a,11b,12,13,13a-octadecahydro-2H-cyclopenta[a]chrysen-9-yl)oxy)carbonyl)-2,2-dimethylcyclobutane-1-carboxylic acid]	265	15200	29	5	2	3.7	14.2	100	100	100
CC(C)C1=C2[C@H]3CC[C@@H]4[C@@]5(C)CC[C@H](OC(=O)[C@H]6C[C@@H](C(=O)O)C6(C)C)C(C)(C)[C@@H]5CC[C@@]4(C)[C@]3(C)CC[C@@]2(C(=O)N2CCC[C@H]2C(C)(C)O)CC1=O [Example 9, (1R,3S)-3-((((3aR,5aR,5bR,7aR,9S,11aR,11bR,13aS)-3a-((S)-2-(2-hydroxypropan-2-yl)pyrrolidine-1-carbonyl)-1-isopropyl-5a,5b,8,8,11a-pentamethyl-2-oxo-3,3a,4,5,5a,5b,6,7,7a,8,9,10,11,11a,11b,12,13,13a-octadecahydro-2H-cyclopenta[a]chrysen-9-yl)oxy)carbonyl)-2,2-dimethylcyclobutane-1-carboxylic acid]	107	10900	40	9	8	7.44	342	100	100	100
CC(C)C1=C2[C@H]3CC[C@@H]4[C@@]5(C)CC[C@H](OC(=O)[C@H]6C[C@@H](C(=O)O)C6(C)C)C(C)(C)[C@@H]5CC[C@@]4(C)[C@]3(C)CC[C@@]2(C(=O)NC(C)(C)c2ncc(-c3ccc(Cl)cc3)[nH]2)CC1=O [Example 11, (1R,3S)-3-((((3aR,5aR,5bR,7aR,9S,11aR,11bR,13aS)-3a-((2-(5-(4-chlorophenyl)-1H-imidazol-2-yl)propan-2-yl)carbamoyl)-1-isopropyl-5a,5b,8,8,11a-pentamethyl-2-oxo-3,3a,4,5,5a,5b,6,7,7a,8,9,10,11,11a,11b,12,13,13a-octadecahydro-2H-cyclopenta[a]chrysen-9-yl)oxy)carbonyl)-2,2-dimethylcyclobutane-1-carboxylic acid]	143	10000	48	3	4	2.93	118	92	99	99
CC(C)C1=C2[C@H]3CC[C@@H]4[C@@]5(C)CC[C@H](OC(=O)[C@H]6C[C@@H](C(=O)O)C6(C)C)C(C)(C)[C@@H]5CC[C@@]4(C)[C@]3(C)CC[C@@]2(C(=O)NC(C)(C)CN2CCCC2)CC1=O [Example 12, (1R,3S)-3-((((3aR,5aR,5bR,7aR,9S,11aR,11bR,13aS)-1-isopropyl-5a,5b,8,8,11a-pentamethyl-3a-((2-methyl-1-(pyrrolidin-1-yl)propan-2-yl)carbamoyl)-2-oxo-3,3a,4,5,5a,5b,6,7,7a,8,9,10,11,11a,11b,12,13,13a-octadecahydro-2H-cyclopenta[a]chrysen-9-yl)oxy)carbonyl)-2,2-dimethlcyclobutane-1-carboxylic acid]	19	5100	100	100	96	3.71	164	9	95	100
CC(C)C1=C2[C@H]3CC[C@@H]4[C@@]5(C)CC[C@H](OC(=O)[C@H]6C[C@@H](C(=O)O)C6(C)C)C(C)(C)[C@@H]5CC[C@@]4(C)[C@]3(C)CC[C@@]2(C(=O)N2CCC[C@H]2CN2CCCC2)CC1=O [Example 13, (1R,3S)-3-((((3aR,5aR,5bR,7aR,9S,11aR,1 bR,13aS)-1-isopropyl-5a,5b,8,8,11a-pentamethyl-2-oxo-3a-((S)-2-(pyrrolidin-1-ylmethyl)pyrrolidine-1-carbonyl)-3,3a,4,5,5a,5b,6,7,7a,8,9,10,11,11a,11b,12,13,13a-octadecahydro-2H-cyclopenta[a]chrysen-9-yl)oxy)carbonyl)-2,2-dimethylcyclobutane-1-carboxylic acid]	320	17000	69	26	28	0.73	17.1	96	100	100
CC(C)C1=C2[C@H]3CC[C@@H]4[C@@]5(C)CC[C@H](OC(=O)[C@H]6C[C@@H](C(=O)O)C6(C)C)C(C)(C)[C@@H]5CC[C@@]4(C)[C@]3(C)CC[C@@]2(C(=O)N(CCN(C)C)Cc2ccc(Cl)cc2)CC1=O [Example 14, (1R,3S)-3-((((3aR,5aR,5bR,7aR,9S,11aR,11bR,13aS)-3a-((4-chlorobenzyl)(2-(dimethylamino)ethyl)carbamoyl)-1-isopropyl-5a,5b,8,8,11a-pentamethyl-2-oxo-3,3a,4,5,5a,5b,6,7,7a,8,9,10,11,11a,11b,12,13,13a-octadecahydro-2H-cyclopenta[a]chrysen-9-yl)oxy)carbonyl)-2,2-dimethylcyclobutane-1-carboxylic acid]	166	9640	91	12	12	1.72	9.83	100	100	100
CC(C)C1=C2[C@H]3CC[C@@H]4[C@@]5(C)CC[C@H](OC(=O)[C@H]6C[C@@H](C(=O)O)C6(C)C)C(C)(C)[C@@H]5CC[C@@]4(C)[C@]3(C)CC[C@@]2(C(=O)NC(C)(C)CO)CC1=O [Example 15, (1R,3S)-3-((((3aR,5aR,5bR,7aR,9S,11aR,11bR,13aS)-3a-((1-hydroxy-2-methylpropan-2-yl)carbamoyl)-1-isopropyl-5a,5b,8,8,11a-pentamethyl-2-oxo-3,3a,4,5,5a,5b,6,7,7a,8,9,10,11,11a,11b,12,13,13a-octadecahydro-2H-cyclopenta[a]chrysen-9-yl)oxy)carbonyl)-2,2-dimethylcyclobutane-1-carboxylic acid]	88.7	9080	70	22	6	2.84	415	97	100	100
